Source: patent US7612087B2, “Heterocyclic compounds as inhibitors of beta-lactamases” (Novexel, priority 2002, dated 2009)
Where a name gives a salt, the structure may show the parent alone.

Columns and labels:
E. coli 250CF1 (Tem3) = assay: microbe, parasite or virus in culture; assay type: cell-based; conditions: compound at 5 mg/l, 24 hours at 37° C.
Outline: (§1)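 Broth micro-dilution MIC of a β-lactamine series, each dilution containing a fixed 5 mg/l of test product. Inoculated plates incubated 24 h at 37 °C. MIC in mg/l taken as lowest concentration without visible bacterial growth.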

E. coli 250SJ1 (Tem7) = assay: MIC, micro-dilution in liquid medium, β-lactamine with product at 5 mg/l; assay type: cell-based; conditions: compound at 5 mg/l, 24 hours at 37° C.
Outline: as §1

[1] = tested on: E. cloacae 293HT6 (Class C); assay: as above; assay type: cell-based; conditions: compound at 5 mg/l, 24 hours at 37° C.
Outline: as §1

[2] = tested on: E. coli 250HT23 (Class D); assay: as above; assay type: cell-based; conditions: compound at 5 mg/l, 24 hours at 37° C.
Outline: as §1

[3] = tested on: S. aureus 011GO66 (PeniR); assay: as above; assay type: cell-based; conditions: compound at 5 mg/l, 24 hours at 37° C.
Outline: as §1

[4] = tested on: P. aeruginosa 391HT7 (PSE); assay: as above; assay type: cell-based; conditions: compound at 5 mg/l, 24 hours at 37° C.
Outline: as §1

Serratia 301HT6 = assay: as above; assay type: cell-based; conditions: compound at 5 mg/l; Trial 10, 301HT6 Serratia; 24 hours at 37° C.
Outline: as §1

E. coli 250HT26 (SHV1) = assay: as above; assay type: cell-based; conditions: compound at 5 mg/l, 24 hours at 37° C.
Outline: as §1

E. coli 250HT21 (Tem1) = assay: as above; assay type: cell-based; conditions: compound at 5 mg/l, 24 hours at 37° C.
Outline: as §1

E. coli 250BE1 (SHV4) = assay: as above; assay type: cell-based; conditions: compound at 5 mg/l, 24 hours at 37° C.
Outline: as §1

E. coli 250HT22 (Tem2) = assay: as above; assay type: cell-based; conditions: compound at 5 mg/l, 24 hours at 37° C.
Outline: as §1

[5] = tested on: P. aeruginosa 391HT8 (PSE); assay: as above; assay type: cell-based; conditions: compound at 5 mg/l, 24 hours at 37° C.
Outline: as §1

β-lactamase TEM1 = biological target: T1, β-lactamase TEM1 (Escherichia coli, UniProt P62593); assay: Inhibition of isolated β-lactamase Tem-1 (Nitrocefin hydrolysis); assay type: biochemical, E.coli 250HT21; conditions: 100 μM Nitrocefin, 50 mM sodium phosphate buffer pH7.0, 37° C.
T1 construct: The β-lactamases are isolated from bacterial strains which are resistant to penicillins and cephalosporins; endogenous in cells; host or cells: E. coli 250HT21 (natural producer; French-press lysate, 100,000 g supernatant)
T1 sequence (P62593 24-286 limits assumed): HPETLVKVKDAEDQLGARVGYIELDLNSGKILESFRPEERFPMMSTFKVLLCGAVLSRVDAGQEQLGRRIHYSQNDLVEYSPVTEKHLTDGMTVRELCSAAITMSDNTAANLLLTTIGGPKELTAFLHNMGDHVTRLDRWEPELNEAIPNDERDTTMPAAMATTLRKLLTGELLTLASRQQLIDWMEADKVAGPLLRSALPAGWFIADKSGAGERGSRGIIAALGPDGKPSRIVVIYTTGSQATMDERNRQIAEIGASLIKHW
Outline: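 TEM-1 from soluble extract of E. coli 250HT21, normalized enzyme, 100 μM Nitrocefin in 50 mM sodium phosphate pH 7.0 at 37 °C. Initial-rate hydrolysis read kinetically at 485 nm, with and without 5 min enzyme–inhibitor preincubation. CI50 from 6 or 8 concentrations in duplicate.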

β-lactamase P99 = biological target: T2, β-lactamase P99 (Enterobacter cloacae, UniProt P05364); assay: biochemical
T2 construct: The β-lactamases are isolated from bacterial strains which are resistant to penicillins and cephalosporins; endogenous in cells; host or cells: Enterobacter cloacae 293HT6 (natural producer; French-press lysate, 100,000 g supernatant)
T2 sequence (P05364 21-381): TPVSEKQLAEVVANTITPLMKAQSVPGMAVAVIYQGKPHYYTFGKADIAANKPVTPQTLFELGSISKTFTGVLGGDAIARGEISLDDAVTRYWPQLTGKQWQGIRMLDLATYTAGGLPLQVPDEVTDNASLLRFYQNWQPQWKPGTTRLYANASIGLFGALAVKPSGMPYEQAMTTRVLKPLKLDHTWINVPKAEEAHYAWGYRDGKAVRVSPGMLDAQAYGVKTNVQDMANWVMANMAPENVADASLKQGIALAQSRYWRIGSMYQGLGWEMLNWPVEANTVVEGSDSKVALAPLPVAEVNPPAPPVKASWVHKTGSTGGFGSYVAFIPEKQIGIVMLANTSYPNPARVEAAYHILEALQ
Outline: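 P99 β-lactamase, taken from the soluble fraction of an Enterobacter cloacae 293HT6 lysate, was assayed at 37° C. in 50 mM sodium phosphate buffer pH7.0 with 100 μM Nitrocefin as the chromogenic substrate. Hydrolysis was followed kinetically at 485 nm at initial speed, with and without a 5 mn enzyme–inhibitor preincubation. Inhibitors were tested at 6 or 8 concentrations in duplicate, and IC50 was fitted with GraFit.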

## NC(=O)COC(=O)C1CCC2CN1C(=O)N2OS(=O)(=O)O (stereo not drawn) [Example 48, sodium salt of trans 2-amino-2-oxoethyl 7-oxo-6-(sulphooxy)-1,6-diazabicyclo[3.2.1]octane-2-carboxylate]
E. coli 250CF1 (Tem3); Trial 4, 250CF1 E. coli Tem3
  MIC of Cefotaxime in combination with the compound: <=0.04 μg/ml
E. coli 250CF1 (Tem3); Trial 4, 250CF1 Tem3
  MIC of Piperacillin in combination with the compound: 1.2 mg/L
E. coli 250SJ1 (Tem7); Trial 5, 250SJ1 E. coli Tem7
  MIC of Cefotaxime in combination with the compound: <=0.04 μg/ml
E. coli 250SJ1 (Tem7); Trial 5, 250SJ1 Tem7
  MIC of Piperacillin in combination with the compound: 1.2 mg/L
[1]; Trial 9, 293HT6 Class
  MIC of Piperacillin in combination with the compound: 2.5 mg/L
[1]; Trial 9, 293HT6 E. cloacae Class C
  MIC of Cefotaxime in combination with the compound: 0.15 mg/L
[2]; Trial 8, 250HT23 Class D
  MIC of Piperacillin in combination with the compound: 5 mg/L
[2]; Trial 8, 250HT23 E. coli Class D
  MIC of Cefotaxime in combination with the compound: <=0.04 μg/ml
[3]; Trial 1, 011GO66 S. aureus PeniR
  MIC of Cefotaxime in combination with the compound: 2.5 mg/L
[3]; Trial 1, 011GO66 peniR
  MIC of Piperacillin in combination with the compound: 1.2 mg/L
[4]; Trial 11, 391HT7 P. aeruginosa PSE
  MIC of Cefotaxime in combination with the compound: 40 mg/L
[4]; Trial 11, 391HT7 PSE
  MIC of Piperacillin in combination with the compound: >40 mg/L
Serratia 301HT6
  MIC of Cefotaxime in combination with the compound: <=0.04 μg/ml
  MIC of Piperacillin in combination with the compound: 0.6 mg/L
E. coli 250HT26 (SHV1); Trial 6, 250HT26 E. coli SHV1
  MIC of Cefotaxime in combination with the compound: <=0.04 μg/ml
E. coli 250HT26 (SHV1); Trial 6, 250HT26 SHV1
  MIC of Piperacillin in combination with the compound: 1.2 mg/L
E. coli 250HT21 (Tem1); Trial 2, 250HT21 E. coli Tem1
  MIC of Cefotaxime in combination with the compound: <=0.04 μg/ml
E. coli 250HT21 (Tem1); Trial 2, 250HT21 Tem1
  MIC of Piperacillin in combination with the compound: 0.6 mg/L
E. coli 250BE1 (SHV4); Trial 7, 250BE1 E. coli SHV4
  MIC of Cefotaxime in combination with the compound: 0.08 mg/L
E. coli 250BE1 (SHV4); Trial 7, 250BE1 SHV4
  MIC of Piperacillin in combination with the compound: 2.5 mg/L
E. coli 250HT22 (Tem2); Trial 3, 250HT22 E. coli Tem2
  MIC of Cefotaxime in combination with the compound: <=0.04 μg/ml
E. coli 250HT22 (Tem2); Trial 3, 250HT22 Tem2
  MIC of Piperacillin in combination with the compound: 2.5 mg/L
[5]; Trial 12, 391HT8 P. aeruginosa PSE
  MIC of Cefotaxime in combination with the compound: >40 mg/L
[5]; Trial 12, 391HT8 PSE
  MIC of Piperacillin in combination with the compound: >40 mg/L
β-lactamase TEM1
  IC50: 15 nM
β-lactamase P99
  IC50: 0.12 µM
